# Source: patent US4017611A, “Control of insects with 3-hydroxymethacrylic acid methyl ester dimethylthionophosphate” (priority 1970, dated 1977)
# Where two headings read alike, the source gives them in different places.
# Key:
# Sitophilus granarius = assay: Durability (disinfection) test on wheat, grain weevil; assay type: in vivo; details: 168 h, read-out: % animals dead after one week exposure
# From the text: (§1) Wheat was shaken up with 5% dusting agent and then mixed again repeatedly with untreated wheat at half the poison concentration. In this way, a dilution series with concentrations of 50 - 25 - 12 - 6 - 3 - 1.5 ppm was obtained.
# (§2) Since the test is repeated once per month, the desired information is obtained concerning the residual effect. In the test, the important pests in storage protection were chosen, viz, the grain weevil (Sitophilus granarius) - lesser grain borer (Rhizopertha dominica) and the larvae of the Khapra beetle (Trogoderma granarium), which are very resistant to insecticides. 20 test insects were tested per concentration and the results are expressed in the following table.
# Rhizopertha dominica = assay: Durability (disinfection) test on wheat, lesser grain borer; assay type: in vivo; details: Rhyzopertha dominica, 168 h, read-out: % animals dead after one week exposure
# From the text: as §1, §2
# Trogoderma granarium (L) = assay: Durability (disinfection) test on wheat, larvae of the Khapra beetle; assay type: in vivo; details: 168 h, read-out: % animals dead after one week exposure
# From the text: as §1, §2
# Sit. Granarius = assay: Diffusion action in wheat (gas phase between wheat grains); assay type: in vivo; details: Sitophilus granarius, 168 h, 50 ppm treated wheat layer, read-out: Mortality in % after 7 days exposure time
# From the text: A plexiglass box was divided by means of wire grids into ten vertical layers each 1 cm thick. Each compartment was filled with wheat grains. The first compartment contained wheat grains which had been treated with 50 ppm active agent (5% dusting agent). The remainder of the compartment contained untreated wheat. All the compartments were then supplied with grain weevils. The mortality was noted after 7 days exposure time and the results are expressed in the following table. Diffusion of active substance in gas phase between the wheat grains
# [1] = Acute oral toxicity (warm blooded toxicity) in rats; details: rat, in vivo, po
smiles,measurement,setting,value
"COP(=O)(OC)OC=C(Cl)Cl [DDVP, dimethyldichlorvinylphosphate, reference compound]",mortality at 1.5 ppm,Sitophilus granarius; wheat fresh,100%
same,mortality at 1.5 ppm,Sitophilus granarius; wheat stored 1 month,0%
same,mortality at 1.5 ppm,Sitophilus granarius; wheat stored 2 months,0%
same,mortality at 1.5 ppm,Sitophilus granarius; wheat stored 3 months,0%
same,mortality at 3 ppm,Sitophilus granarius; wheat fresh,100%
same,mortality at 3 ppm,Sitophilus granarius; wheat stored 1 month,5%
same,mortality at 3 ppm,Sitophilus granarius; wheat stored 2 months,0%
same,mortality at 3 ppm,Sitophilus granarius; wheat stored 3 months,0%
same,mortality at 6 ppm,Sitophilus granarius; wheat fresh,100%
same,mortality at 6 ppm,Sitophilus granarius; wheat stored 1 month,25%
same,mortality at 6 ppm,Sitophilus granarius; wheat stored 2 months,0%
same,mortality at 6 ppm,Sitophilus granarius; wheat stored 3 months,0%
same,mortality at 12 ppm,Sitophilus granarius; wheat fresh,100%
same,mortality at 12 ppm,Sitophilus granarius; wheat stored 1 month,100%
same,mortality at 12 ppm,Sitophilus granarius; wheat stored 2 months,55%
same,mortality at 12 ppm,Sitophilus granarius; wheat stored 3 months,0%
same,mortality at 25 ppm,Sitophilus granarius; wheat fresh,100%
same,mortality at 25 ppm,Sitophilus granarius; wheat stored 1 month,100%
same,mortality at 25 ppm,Sitophilus granarius; wheat stored 2 months,100%
same,mortality at 25 ppm,Sitophilus granarius; wheat stored 3 months,50%
same,mortality at 50 ppm,Sitophilus granarius; wheat fresh,100%
same,mortality at 50 ppm,Sitophilus granarius; wheat stored 1 month,100%
same,mortality at 50 ppm,Sitophilus granarius; wheat stored 2 months,100%
same,mortality at 50 ppm,Sitophilus granarius; wheat stored 3 months,99%
same,mortality at 1.5 ppm,Rhizopertha dominica; wheat fresh,95%
same,mortality at 1.5 ppm,Rhizopertha dominica; wheat stored 1 month,0%
same,mortality at 1.5 ppm,Rhizopertha dominica; wheat stored 2 months,5%
same,mortality at 1.5 ppm,Rhizopertha dominica; wheat stored 3 months,0%
same,mortality at 3 ppm,Rhizopertha dominica; wheat fresh,100%
same,mortality at 3 ppm,Rhizopertha dominica; wheat stored 1 month,5%
same,mortality at 3 ppm,Rhizopertha dominica; wheat stored 2 months,0%
same,mortality at 3 ppm,Rhizopertha dominica; wheat stored 3 months,0%
same,mortality at 6 ppm,Rhizopertha dominica; wheat fresh,100%
same,mortality at 6 ppm,Rhizopertha dominica; wheat stored 1 month,10%
same,mortality at 6 ppm,Rhizopertha dominica; wheat stored 2 months,5%
same,mortality at 6 ppm,Rhizopertha dominica; wheat stored 3 months,0%
same,mortality at 12 ppm,Rhizopertha dominica; wheat fresh,100%
same,mortality at 12 ppm,Rhizopertha dominica; wheat stored 1 month,15%
same,mortality at 12 ppm,Rhizopertha dominica; wheat stored 2 months,20%
same,mortality at 12 ppm,Rhizopertha dominica; wheat stored 3 months,0%
same,mortality at 25 ppm,Rhizopertha dominica; wheat fresh,100%
same,mortality at 25 ppm,Rhizopertha dominica; wheat stored 1 month,65%
same,mortality at 25 ppm,Rhizopertha dominica; wheat stored 2 months,40%
same,mortality at 25 ppm,Rhizopertha dominica; wheat stored 3 months,15%
same,mortality at 50 ppm,Rhizopertha dominica; wheat fresh,100%
same,mortality at 50 ppm,Rhizopertha dominica; wheat stored 1 month,100%
same,mortality at 50 ppm,Rhizopertha dominica; wheat stored 2 months,95%
same,mortality at 50 ppm,Rhizopertha dominica; wheat stored 3 months,80%
same,mortality at 1.5 ppm,Trogoderma granarium (L); wheat fresh,85%
same,mortality at 1.5 ppm,Trogoderma granarium (L); wheat stored 1 month,0%
same,mortality at 1.5 ppm,Trogoderma granarium (L); wheat stored 2 months,0%
same,mortality at 1.5 ppm,Trogoderma granarium (L); wheat stored 3 months,0%
same,mortality at 3 ppm,Trogoderma granarium (L); wheat fresh,100%
same,mortality at 3 ppm,Trogoderma granarium (L); wheat stored 1 month,0%
same,mortality at 3 ppm,Trogoderma granarium (L); wheat stored 2 months,0%
same,mortality at 3 ppm,Trogoderma granarium (L); wheat stored 3 months,0%
same,mortality at 6 ppm,Trogoderma granarium (L); wheat fresh,100%
same,mortality at 6 ppm,Trogoderma granarium (L); wheat stored 1 month,0%
same,mortality at 6 ppm,Trogoderma granarium (L); wheat stored 2 months,0%
same,mortality at 6 ppm,Trogoderma granarium (L); wheat stored 3 months,0%
same,mortality at 12 ppm,Trogoderma granarium (L); wheat fresh,100%
same,mortality at 12 ppm,Trogoderma granarium (L); wheat stored 1 month,5%
same,mortality at 12 ppm,Trogoderma granarium (L); wheat stored 2 months,0%
same,mortality at 12 ppm,Trogoderma granarium (L); wheat stored 3 months,0%
same,mortality at 25 ppm,Trogoderma granarium (L); wheat fresh,100%
same,mortality at 25 ppm,Trogoderma granarium (L); wheat stored 1 month,75%
same,mortality at 25 ppm,Trogoderma granarium (L); wheat stored 2 months,10%
same,mortality at 25 ppm,Trogoderma granarium (L); wheat stored 3 months,0%
same,mortality at 50 ppm,Trogoderma granarium (L); wheat fresh,100%
same,mortality at 50 ppm,Trogoderma granarium (L); wheat stored 1 month,100%
same,mortality at 50 ppm,Trogoderma granarium (L); wheat stored 2 months,45%
same,mortality at 50 ppm,Trogoderma granarium (L); wheat stored 3 months,0%
same,mortality at 50 ppm,Sit. Granarius; distance 1 cm,100%
same,mortality at 50 ppm,Sit. Granarius; distance 2 cm,100%
same,mortality at 50 ppm,Sit. Granarius; distance 3 cm,80%
same,mortality at 50 ppm,Sit. Granarius; distance 4 cm,0%
same,mortality at 50 ppm,Sit. Granarius; distance 5 cm,0%
same,mortality at 50 ppm,Sit. Granarius; distance 6 cm,0%
same,LD50,[1],50 mg/kg
